{"source": "ChEMBL document CHEMBL5335856", "about": "“Structurally Diverse Alkaloids with Anti-Renal-Fibrosis Activity from the Centipede Scolopendra subspinipes mutilans” (J Nat Prod, 2024)", "key": {"RAW264.7": {"test_system": "RAW264.7", "assay": "Antiinflammatory activity against LPS-induced mouse RAW264.7 cells assessed as reduction in COX-2 protein level at 20 uM", "assay_type": "functional, cell-based"}, "NRK-52E [1]": {"test_system": "NRK-52E", "assay": "Anti-renal-fibrosis activity in TGF-beta1 induced rat NRK-52E cells assessed as downregulation of collagen I protein level at 20 uM by Western blot analysis", "assay_type": "functional, cell-based"}, "NRK-52E [2]": {"test_system": "NRK-52E", "assay": "Anti-renal-fibrosis activity in TGF-beta1 induced rat NRK-52E cells assessed as downregulation of collagen I protein level by Western blot analysis", "assay_type": "functional, cell-based", "settings": "dose 5-40 µM"}, "NRK-52E [3]": {"test_system": "NRK-52E", "assay": "Anti-renal-fibrosis activity in TGF-beta1 induced Lamp2 knocked down rat NRK-52E cells assessed as downregulation of collagen I expression at 40 uM", "assay_type": "functional, cell-based"}, "[4]": {"biological_target": "Protein YIF1A (Homo sapiens) (UniProt O95070)", "sequence (O95070 whole entry)": "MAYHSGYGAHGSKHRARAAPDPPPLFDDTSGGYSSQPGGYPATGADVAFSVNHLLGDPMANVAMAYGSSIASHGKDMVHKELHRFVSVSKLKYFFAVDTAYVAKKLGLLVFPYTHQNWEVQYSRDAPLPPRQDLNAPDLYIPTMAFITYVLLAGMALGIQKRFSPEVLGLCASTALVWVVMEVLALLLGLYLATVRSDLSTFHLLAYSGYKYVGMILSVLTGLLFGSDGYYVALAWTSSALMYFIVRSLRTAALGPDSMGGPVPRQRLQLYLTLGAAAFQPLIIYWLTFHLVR", "assay": "Binding affinity to Yif1a (unknown origin) at 200 uM preincubated for 2 hrs followed by pronase addition and measured after 30 mins by coomassie blue staining based SDS-PAGE gel analysis"}, "[5]": {"biological_target": "ATP-dependent RNA helicase DHX8 (Homo sapiens) (UniProt Q14562)", "assay": "Binding affinity to Dhx8 (unknown origin) at 200 uM preincubated for 2 hrs followed by pronase addition and measured after 30 mins by coomassie blue staining based SDS-PAGE gel analysis"}, "[6]": {"biological_target": "Collagen alpha-1(I) chain (Homo sapiens) (UniProt P02452)", "sequence (P02452 whole entry)": "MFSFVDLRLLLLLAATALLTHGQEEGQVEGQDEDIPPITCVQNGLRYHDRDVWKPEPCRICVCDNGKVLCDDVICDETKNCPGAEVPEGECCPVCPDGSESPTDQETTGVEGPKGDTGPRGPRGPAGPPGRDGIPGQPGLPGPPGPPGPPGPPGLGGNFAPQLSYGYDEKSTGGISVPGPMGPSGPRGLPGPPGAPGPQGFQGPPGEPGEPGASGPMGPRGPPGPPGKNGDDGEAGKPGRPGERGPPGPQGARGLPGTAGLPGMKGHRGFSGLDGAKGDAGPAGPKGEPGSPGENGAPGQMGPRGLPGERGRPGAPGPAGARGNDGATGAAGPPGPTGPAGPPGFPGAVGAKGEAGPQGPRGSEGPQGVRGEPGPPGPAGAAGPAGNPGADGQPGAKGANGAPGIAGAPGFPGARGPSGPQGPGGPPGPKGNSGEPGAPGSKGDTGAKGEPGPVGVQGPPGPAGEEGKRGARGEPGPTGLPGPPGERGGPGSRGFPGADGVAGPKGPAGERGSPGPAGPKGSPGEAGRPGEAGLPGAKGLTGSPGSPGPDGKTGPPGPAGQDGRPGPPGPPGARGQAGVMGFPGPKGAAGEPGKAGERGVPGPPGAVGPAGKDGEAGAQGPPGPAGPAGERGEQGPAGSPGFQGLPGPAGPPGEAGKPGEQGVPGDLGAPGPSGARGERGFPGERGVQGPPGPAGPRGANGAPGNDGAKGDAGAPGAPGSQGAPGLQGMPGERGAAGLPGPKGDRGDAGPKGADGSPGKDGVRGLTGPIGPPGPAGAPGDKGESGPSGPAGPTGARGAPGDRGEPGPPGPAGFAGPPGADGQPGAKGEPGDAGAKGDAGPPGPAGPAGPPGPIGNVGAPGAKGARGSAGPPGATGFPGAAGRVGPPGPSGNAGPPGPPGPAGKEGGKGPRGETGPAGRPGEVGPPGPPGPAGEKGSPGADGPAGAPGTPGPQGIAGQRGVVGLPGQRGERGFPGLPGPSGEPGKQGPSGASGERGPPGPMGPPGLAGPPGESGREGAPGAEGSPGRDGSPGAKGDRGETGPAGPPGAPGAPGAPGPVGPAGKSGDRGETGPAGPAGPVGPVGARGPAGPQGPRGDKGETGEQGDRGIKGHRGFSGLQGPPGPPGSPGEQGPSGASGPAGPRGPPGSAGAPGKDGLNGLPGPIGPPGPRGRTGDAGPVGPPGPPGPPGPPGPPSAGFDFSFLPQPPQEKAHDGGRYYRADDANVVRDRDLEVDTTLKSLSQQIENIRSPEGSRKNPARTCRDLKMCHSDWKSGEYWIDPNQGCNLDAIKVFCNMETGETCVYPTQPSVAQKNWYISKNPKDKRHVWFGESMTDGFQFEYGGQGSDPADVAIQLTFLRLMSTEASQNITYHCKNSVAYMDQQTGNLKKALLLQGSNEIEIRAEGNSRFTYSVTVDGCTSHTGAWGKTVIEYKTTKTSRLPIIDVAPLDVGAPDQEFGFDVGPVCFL", "assay": "Binding affinity to Col1a1 (unknown origin) at 200 uM preincubated for 2 hrs followed by pronase addition and measured after 30 mins by coomassie blue staining based SDS-PAGE gel analysis"}, "[7]": {"biological_target": "Glutathione hydrolase 7 (Homo sapiens) (UniProt Q9UJ14)", "assay": "Binding affinity to Ggt7 (unknown origin) at 200 uM preincubated for 2 hrs followed by pronase addition and measured after 30 mins by coomassie blue staining based SDS-PAGE gel analysis"}, "[8]": {"biological_target": "SWI/SNF-related matrix-associated actin-dependent regulator of chromatin subfamily D member 2 (Homo sapiens) (UniProt Q92925)", "assay": "Binding affinity to Smarcd2 (unknown origin) at 200 uM preincubated for 2 hrs followed by pronase addition and measured after 30 mins by coomassie blue staining based SDS-PAGE gel analysis"}, "[9]": {"biological_target": "Armadillo repeat-containing protein 10 (Homo sapiens) (UniProt Q8N2F6)", "assay": "Binding affinity to Armc10 (unknown origin) at 200 uM preincubated for 2 hrs followed by pronase addition and measured after 30 mins by coomassie blue staining based SDS-PAGE gel analysis"}, "[10]": {"biological_target": "Deoxycytidine kinase (Homo sapiens) (UniProt P27707)", "sequence (P27707 whole entry, looked up)": "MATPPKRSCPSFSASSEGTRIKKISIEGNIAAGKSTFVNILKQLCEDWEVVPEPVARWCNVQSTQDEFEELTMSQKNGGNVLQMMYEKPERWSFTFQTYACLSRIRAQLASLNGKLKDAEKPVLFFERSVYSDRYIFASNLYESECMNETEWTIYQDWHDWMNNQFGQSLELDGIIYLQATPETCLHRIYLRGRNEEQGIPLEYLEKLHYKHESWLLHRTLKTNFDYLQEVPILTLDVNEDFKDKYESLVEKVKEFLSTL", "assay": "Binding affinity to Dck (unknown origin) at 200 uM preincubated for 2 hrs followed by pronase addition and measured after 30 mins by coomassie blue staining based SDS-PAGE gel analysis"}, "[11]": {"biological_target": "Ubiquitin-like modifier-activating enzyme 5 (Homo sapiens) (UniProt Q9GZZ9)", "assay": "Binding affinity to Uba5 (unknown origin) at 200 uM preincubated for 2 hrs followed by pronase addition and measured after 30 mins by coomassie blue staining based SDS-PAGE gel analysis"}, "[12]": {"biological_target": "Far upstream element-binding protein 2 (Homo sapiens) (UniProt Q92945)", "assay": "Binding affinity to KHSRP (unknown origin) assessed as fold change in protein upregulation at 200 uM preincubated for 2 hrs followed by pronase addition and measured after 30 mins by coomassie blue staining based SDS-PAGE gel analysis"}, "[13]": {"biological_target": "Chromosome transmission fidelity protein 18 homolog (Homo sapiens) (UniProt Q8WVB6)", "assay": "Binding affinity to Chtf18 (unknown origin) assessed as fold change in protein upregulation at 200 uM preincubated for 2 hrs followed by pronase addition and measured after 30 mins by coomassie blue staining based SDS-PAGE gel analysis"}, "[14]": {"biological_target": "Serine/threonine-protein kinase DCLK1 (Homo sapiens) (UniProt O15075)", "assay": "Binding affinity to Dclk1 (unknown origin) assessed as fold change in protein upregulation at 200 uM preincubated for 2 hrs followed by pronase addition and measured after 30 mins by coomassie blue staining based SDS-PAGE gel analysis"}, "[15]": {"biological_target": "Protein YIF1B (Homo sapiens) (UniProt Q5BJH7)", "assay": "Binding affinity to Yif1b (unknown origin) assessed as fold change in protein upregulation at 200 uM preincubated for 2 hrs followed by pronase addition and measured after 30 mins by coomassie blue staining based SDS-PAGE gel analysis"}, "[16]": {"biological_target": "Tyrosine-protein phosphatase non-receptor type 2 (Homo sapiens) (UniProt P17706)", "assay": "Binding affinity to Ptpn2 (unknown origin) assessed as fold change in protein upregulation at 200 uM preincubated for 2 hrs followed by pronase addition and measured after 30 mins by coomassie blue staining based SDS-PAGE gel analysis"}, "[17]": {"biological_target": "Protein FAM91A1 (Homo sapiens) (UniProt Q658Y4)", "sequence (Q658Y4 whole entry)": "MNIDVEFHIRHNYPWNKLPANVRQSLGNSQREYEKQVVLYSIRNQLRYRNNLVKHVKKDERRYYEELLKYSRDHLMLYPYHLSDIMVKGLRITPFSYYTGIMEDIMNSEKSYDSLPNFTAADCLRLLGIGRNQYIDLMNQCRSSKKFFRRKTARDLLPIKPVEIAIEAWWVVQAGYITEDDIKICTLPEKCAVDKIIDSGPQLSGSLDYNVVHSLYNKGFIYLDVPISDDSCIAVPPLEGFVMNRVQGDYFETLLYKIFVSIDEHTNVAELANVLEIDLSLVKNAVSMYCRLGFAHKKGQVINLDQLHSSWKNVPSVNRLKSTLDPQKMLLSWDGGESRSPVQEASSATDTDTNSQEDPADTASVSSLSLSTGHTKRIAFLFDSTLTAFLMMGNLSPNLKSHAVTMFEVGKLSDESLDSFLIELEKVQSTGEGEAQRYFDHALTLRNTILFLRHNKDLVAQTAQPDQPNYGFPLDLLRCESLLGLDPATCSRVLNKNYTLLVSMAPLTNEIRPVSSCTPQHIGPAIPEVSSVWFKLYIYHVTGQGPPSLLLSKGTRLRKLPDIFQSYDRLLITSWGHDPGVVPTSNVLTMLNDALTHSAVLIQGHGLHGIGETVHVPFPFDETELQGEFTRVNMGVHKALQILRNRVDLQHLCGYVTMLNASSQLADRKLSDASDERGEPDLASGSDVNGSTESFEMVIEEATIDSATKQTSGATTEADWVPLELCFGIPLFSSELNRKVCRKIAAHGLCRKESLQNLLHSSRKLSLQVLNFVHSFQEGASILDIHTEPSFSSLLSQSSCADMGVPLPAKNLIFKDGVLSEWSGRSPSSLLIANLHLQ", "assay": "Binding affinity to Fam91a1 (unknown origin) assessed as fold change in protein upregulation at 200 uM preincubated for 2 hrs followed by pronase addition and measured after 30 mins by coomassie blue staining based SDS-PAGE gel analysis"}, "[18]": {"biological_target": "Prelamin-A/C (Homo sapiens) (UniProt P02545)", "sequence (P02545 whole entry)": "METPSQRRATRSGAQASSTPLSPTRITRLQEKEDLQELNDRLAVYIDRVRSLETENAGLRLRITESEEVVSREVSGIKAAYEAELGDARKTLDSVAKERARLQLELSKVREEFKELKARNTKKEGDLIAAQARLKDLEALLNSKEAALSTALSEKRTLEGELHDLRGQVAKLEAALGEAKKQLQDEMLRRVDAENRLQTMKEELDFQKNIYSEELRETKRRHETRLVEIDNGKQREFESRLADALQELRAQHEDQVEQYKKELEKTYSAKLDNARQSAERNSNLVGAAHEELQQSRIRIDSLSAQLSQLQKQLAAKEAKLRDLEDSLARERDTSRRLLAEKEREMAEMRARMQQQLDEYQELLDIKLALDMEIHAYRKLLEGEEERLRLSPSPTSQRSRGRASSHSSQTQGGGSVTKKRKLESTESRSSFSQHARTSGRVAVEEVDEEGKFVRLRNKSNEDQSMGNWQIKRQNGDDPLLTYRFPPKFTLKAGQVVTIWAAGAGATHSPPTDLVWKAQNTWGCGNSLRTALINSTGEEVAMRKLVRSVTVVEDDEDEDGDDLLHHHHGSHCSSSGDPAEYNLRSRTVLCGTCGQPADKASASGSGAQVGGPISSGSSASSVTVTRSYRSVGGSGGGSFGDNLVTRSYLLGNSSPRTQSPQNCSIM", "assay": "Binding affinity to LMNA (unknown origin) assessed as fold change in protein upregulation at 200 uM preincubated for 2 hrs followed by pronase addition and measured after 30 mins by coomassie blue staining based SDS-PAGE gel analysis"}, "[19]": {"biological_target": "Stress-induced-phosphoprotein 1 (Homo sapiens) (UniProt P31948)", "assay": "Binding affinity to Stip1 (unknown origin) assessed as fold change in protein upregulation at 200 uM preincubated for 2 hrs followed by pronase addition and measured after 30 mins by coomassie blue staining based SDS-PAGE gel analysis"}, "Testin (Homo sapiens)": {"biological_target": "Testin (Homo sapiens) (UniProt Q9UGI8)", "sequence (Q9UGI8 whole entry)": "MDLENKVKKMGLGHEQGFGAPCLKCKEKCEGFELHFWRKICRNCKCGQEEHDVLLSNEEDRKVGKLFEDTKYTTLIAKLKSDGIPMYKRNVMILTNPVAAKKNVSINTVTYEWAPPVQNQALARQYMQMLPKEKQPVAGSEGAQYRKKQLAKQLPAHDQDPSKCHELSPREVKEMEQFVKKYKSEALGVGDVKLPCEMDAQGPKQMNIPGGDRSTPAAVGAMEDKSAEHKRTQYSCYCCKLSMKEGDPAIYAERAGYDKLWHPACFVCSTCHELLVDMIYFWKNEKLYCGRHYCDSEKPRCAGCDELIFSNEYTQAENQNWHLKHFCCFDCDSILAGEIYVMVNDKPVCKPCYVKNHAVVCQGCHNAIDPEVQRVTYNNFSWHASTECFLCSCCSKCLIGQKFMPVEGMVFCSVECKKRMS", "assay": "Binding affinity to Tes (unknown origin) assessed as fold change in protein upregulation at 200 uM preincubated for 2 hrs followed by pronase addition and measured after 30 mins by coomassie blue staining based SDS-PAGE gel analysis"}, "[20]": {"biological_target": "Cysteine and glycine-rich protein 2 (Homo sapiens) (UniProt Q16527)", "assay": "Binding affinity to Csrp2 (unknown origin) assessed as fold change in protein upregulation at 200 uM preincubated for 2 hrs followed by pronase addition and measured after 30 mins by coomassie blue staining based SDS-PAGE gel analysis"}, "[21]": {"biological_target": "Heat shock 70 kDa protein 4L (Homo sapiens) (UniProt O95757)", "sequence (O95757 whole entry)": "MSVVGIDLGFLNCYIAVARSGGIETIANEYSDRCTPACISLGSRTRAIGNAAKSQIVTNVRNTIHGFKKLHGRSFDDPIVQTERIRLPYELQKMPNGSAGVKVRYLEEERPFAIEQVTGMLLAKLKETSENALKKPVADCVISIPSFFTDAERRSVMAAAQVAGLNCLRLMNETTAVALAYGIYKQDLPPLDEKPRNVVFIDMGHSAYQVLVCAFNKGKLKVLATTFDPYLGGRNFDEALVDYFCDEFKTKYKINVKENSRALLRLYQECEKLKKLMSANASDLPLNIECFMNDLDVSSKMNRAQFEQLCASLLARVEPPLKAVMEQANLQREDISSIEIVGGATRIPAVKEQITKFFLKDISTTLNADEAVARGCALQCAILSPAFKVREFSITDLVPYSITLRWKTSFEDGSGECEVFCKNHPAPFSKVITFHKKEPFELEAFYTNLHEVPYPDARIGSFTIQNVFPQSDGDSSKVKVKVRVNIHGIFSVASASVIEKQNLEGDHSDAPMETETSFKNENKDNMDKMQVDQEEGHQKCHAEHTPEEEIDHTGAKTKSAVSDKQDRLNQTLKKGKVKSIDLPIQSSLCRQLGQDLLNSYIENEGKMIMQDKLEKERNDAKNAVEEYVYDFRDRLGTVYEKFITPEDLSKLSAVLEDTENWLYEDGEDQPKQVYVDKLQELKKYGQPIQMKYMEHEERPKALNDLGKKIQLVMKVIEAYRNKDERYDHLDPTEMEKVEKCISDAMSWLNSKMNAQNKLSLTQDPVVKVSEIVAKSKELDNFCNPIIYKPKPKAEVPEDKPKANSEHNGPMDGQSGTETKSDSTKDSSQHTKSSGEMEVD", "assay": "Binding affinity to Hspa4l (unknown origin) assessed as fold change in protein upregulation at 200 uM preincubated for 2 hrs followed by pronase addition and measured after 30 mins by coomassie blue staining based SDS-PAGE gel analysis"}, "[22]": {"biological_target": "Chromobox protein homolog 5 (Homo sapiens) (UniProt P45973)", "sequence (P45973 whole entry)": "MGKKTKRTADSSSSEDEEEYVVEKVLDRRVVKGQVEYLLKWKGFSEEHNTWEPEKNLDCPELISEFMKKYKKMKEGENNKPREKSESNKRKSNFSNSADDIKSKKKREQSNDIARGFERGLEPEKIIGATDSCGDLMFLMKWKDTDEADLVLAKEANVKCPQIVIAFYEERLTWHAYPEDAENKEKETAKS", "assay": "Binding affinity to Cbx5 (unknown origin) assessed as fold change in protein upregulation at 200 uM preincubated for 2 hrs followed by pronase addition and measured after 30 mins by coomassie blue staining based SDS-PAGE gel analysis"}, "[23]": {"biological_target": "FACT complex subunit SPT16 (Homo sapiens) (UniProt Q9Y5B9)", "assay": "Binding affinity to Supt16h (unknown origin) assessed as fold change in protein upregulation at 200 uM preincubated for 2 hrs followed by pronase addition and measured after 30 mins by coomassie blue staining based SDS-PAGE gel analysis"}, "[24]": {"biological_target": "Protein O-mannosyl-transferase TMTC3 (Homo sapiens) (UniProt Q6ZXV5)", "assay": "Binding affinity to Tmtc3 (unknown origin) assessed as fold change in protein upregulation at 200 uM preincubated for 2 hrs followed by pronase addition and measured after 30 mins by coomassie blue staining based SDS-PAGE gel analysis"}}, "note": "Active and inactive are the calls of the source. The calls are words filed in the database; no cut-off is given here."}
{"compound": "COc1c(O)nc2c(O)cccc2c1OC", "values": [{"measurement": "Activity", "setting": "RAW264.7", "result": "Active"}, {"measurement": "Activity", "setting": "NRK-52E [1]", "result": "Active"}, {"measurement": "Activity", "setting": "NRK-52E [2]", "result": "Dose-Dependent Effect"}, {"measurement": "Activity", "setting": "NRK-52E [3]", "result": "inactive"}, {"measurement": "Activity", "setting": "[4]", "result": "Active"}, {"measurement": "Activity", "setting": "[5]", "result": "Active"}, {"measurement": "Activity", "setting": "[6]", "result": "Active"}, {"measurement": "Activity", "setting": "[7]", "result": "Active"}, {"measurement": "Activity", "setting": "[8]", "result": "Active"}, {"measurement": "Activity", "setting": "[9]", "result": "Active"}, {"measurement": "Activity", "setting": "[10]", "result": "Active"}, {"measurement": "Activity", "setting": "[11]", "result": "Active"}, {"measurement": "fold change (FC)", "setting": "[12]", "result": 2.19}, {"measurement": "fold change (FC)", "setting": "[13]", "result": 2.05}, {"measurement": "fold change (FC)", "setting": "[14]", "result": 2.01}, {"measurement": "fold change (FC)", "setting": "[15]", "result": 1.76}, {"measurement": "fold change (FC)", "setting": "[16]", "result": 1.57}, {"measurement": "fold change (FC)", "setting": "[17]", "result": 1.36}, {"measurement": "fold change (FC)", "setting": "[18]", "result": 1.34}, {"measurement": "fold change (FC)", "setting": "[19]", "result": 1.33}, {"measurement": "fold change (FC)", "setting": "Testin (Homo sapiens)", "result": 1.32}, {"measurement": "fold change (FC)", "setting": "[20]", "result": 1.29}, {"measurement": "fold change (FC)", "setting": "[21]", "result": 1.28}, {"measurement": "fold change (FC)", "setting": "[22]", "result": 1.25}, {"measurement": "fold change (FC)", "setting": "[23]", "result": 1.23}, {"measurement": "fold change (FC)", "setting": "[24]", "result": 1.22}]}
